The term IC50 denotes the midpoint of a concentration-inhibition curve.

Format in all cases: cell-based
One test concerns PANC1-CSC. Description: MTS cell viability assay, PANC1-CSC. As to conditions: Table 6, tumor stem cell, 72 hours; read-out: IC50 against PANC1-CSC. On the procedure: (§1) Primary viability screening: (1) the synthesized compounds 3a to 13d were respectively dissolved in DMSO to prepare a 40 μg/mL cannabicyclol and cannabicyclol derivative solutions.
(§2) (2) A control group: a 200 μL DMSO solvent.
(§3) (3) The solutions of compounds 3a to 13d were diluted in a twofold gradient to obtain cannabicyclol and cannabicyclol derivative solutions at concentrations of 40 μg/mL, 20 μg/mL, 10 μg/mL, 5 μg/mL, 2.5 μg/mL, 1.25 μg/mL, and 0.625 μg/mL, and 0.3125 μg/mL, respectively.
(§4) (4) Three glioblastoma stem cells (GSC-3, GSC-12, and GSC-18), three pancreatic cancer cell-derived stem cells (PANC-1-CSC, BXPC-3-CSC, and ASPC1-CSC), three liver cancer cell-derived stem cells (HepG2-CSC, MHCC97H-CSC, and SMMC7721-CSC), HEK-293T cells, 16 tumor cells (U251, U87, T98G, PANC1, BXPC3, ASPC1, HepG2, MHCC97H, SMMC7721, PC3, SKOV3, MDA-MB231, A549, HCT116, HEC-1B, MKN28), and differentiated glioblastoma stem cells (GSC-3diff and GSC-12diff) derived from GSC-3 and GSC-12 (all of the cells were provided by the Laboratory of Tumor Animal Model Preparation and Application Research, West China Hospital, Sichuan University) were inoculated into a 96-well plate at a concentration of 2×10^4 cells/well, and 100 μL of culture medium was then added to each well; […]
(§5) (10) The absorbance value at 490 nm was measured on an enzyme labeling apparatus, and the IC50 value was calculated.

In test [1] the test system is GSC-12. Description: MTS cell viability assay, GSC-12. As to conditions: GSC12; Table 6, tumor stem cell, 72 hours; read-out: IC50 against GSC-12. As to the method:
as §1, §2, §3, §4, §5

A further test concerns MHCC97H-CSC. Nature of the test: MTS cell viability assay, MHCC97H-CSC. The conditions noted are these: Table 6, tumor stem cell, 72 hours; read-out: IC50 against MHCC97H-CSC. On the procedure:
as §1, §2, §3, §4, §5
Background: Tetrazolium dyes change colour on reduction, which living cells bring about.

The subject of test [2] is glioblastoma cell line U251. Description: Soft agar colony (clone) formation, U251. The conditions noted are these: crystal violet, FIG. 4, compound 3a 0, 5 and 5 [sic] μg/mL. On the procedure:
(§6) […] of low-melting-point agarose was dissolved in 12.5 mL of ddH2O to prepare a 3.2% low-melting-point agarose gel. The low-melting-point agarose gel was sterilized by autoclaving at 121° C. and 0.12 MPa for 20 minutes. After sterilization, the low-melting-point agarose gel was maintained at 60° C. in a drying oven for further use.
(§7) 1.75 mL of 3.2% sterile low-melting-point agarose gel was taken, 5.25 mL of the corresponding complete medium was added, and the two were mixed thoroughly using a pipette to prepare a base gel at a concentration of 0.8%.
(§8) 1 mL of the base gel was added to each well of a 6-well plate, ensuring that the base gel evenly covered the bottom of each well. The plate was placed at 4° C. for 5 minutes to allow the gel to solidify. After the gel had fully solidified, the plate was warmed at 37° C. for 5 minutes.
(§9) 6 cells/cell lines (U251, SMMC7721, GSC-3, GSC-12, SMMC7721-CSC, and HepG2-CSC) were individually digested with 1× trypsin for 3 minutes. The corresponding complete culture medium (same as in the application example 1) was added to terminate the digestion. Cells were centrifuged at 1000 rpm for 3 minutes, and the cells were collected and counted. A total of 5×10^3 cells were added to each well, each group was set up with three replicates. […]

For the next test, the system named is SKOV3. Description: MTS cell viability assay, SKOV3. As to conditions: Homo sapiens, SK-OV-3; Table 7, 72 hours; read-out: IC50 against SKOV3. As to the method:
as §1, §2, §3, §4, §5

Test [3] deals with HEK-293T, GSC-3diff, GSC-12diff and 16 tumor cells. Description: MTS cell viability assay, summary over HEK-293T, GSC-3diff, GSC-12diff and 16 tumor cells. The conditions noted are these: summary of Table 7 in words. On the procedure:
as §1, §2, §3, §4, §5

The test system of the next test is HepG2-CSC. Nature of the test: Soft agar colony (clone) formation, HepG2-CSC. The conditions noted are these: crystal violet, FIG. 4, compound 3a 0, 5 and 5 [sic] μg/mL. On the procedure:
as §6, §7, §8, §9

The test system of the next test is SMMC7721-CSC. Description: Soft agar colony (clone) formation, SMMC7721-CSC. As to conditions: crystal violet, FIG. 4, compound 3a 0, 5 and 5 [sic] μg/mL. As to the method:
as §6, §7, §8, §9

Test [4] deals with GSC-12. Nature of the test: Soft agar colony (clone) formation, GSC-12. The conditions noted are these: crystal violet, FIG. 4, compound 3a 0, 5 and 5 [sic] μg/mL. On the procedure: as §6, §7, §8, §9
For another test, the system named is GSC-18. Nature of the test: MTS cell viability assay, GSC-18. As to conditions: GSC18; Table 6, tumor stem cell, 72 hours; read-out: IC50 against GSC-18. On the procedure:
as §1, §2, §3, §4, §5

≈ marks a conversion by molar mass, not a printed value. A value given as a limit tells only on which side of the number the result lay.

Turning to `CCCCCc1cc(O)c2c(c1)OC1(C)CCC3C1C2C3(C)C` (stereo not shown) [Compound 3a, cannabicyclol], the IC50 with PANC1-CSC is 13 µg/mL (≈ 41.3 µM); in the test on GSC-12 [1], 8.03 µg/mL (≈ 25.5 µM); in the test with MHCC97H-CSC, 5.32 µg/mL (≈ 16.9 µM); in the test with SKOV3, more than 40 µg/mL; in the test on GSC-18, 6.4 µg/mL (≈ 20.4 µM). For the same compound, the “colony formation of U251” value in test [2] was “significantly inhibited”. For the same compound, the “inhibitory effects on HEK-293T, GSC-3diff, GSC-12diff and the 16 tumor cells” value in test [3] was “no significant inhibitory effects”. Also, in the test on HepG2-CSC, the “colony formation of HepG2-CSC” value was “significantly inhibited”. For the same compound, the “colony formation of SMMC7721-CSC” value with SMMC7721-CSC is reported as “significantly inhibited”. Further, in the test with GSC-12 [4], the “colony formation of GSC-12” value is “significantly inhibited”.
